From article PMC7913460, “Targeting hydroxycinnamoyl CoA: shikimate hydroxycinnamoyl transferase for lignin modification in Brachypodium distachyon” (Biotechnology for Biofuels, 2021)

What was measured:
Type in all cases: biochemical, Medicago truncatula
MtHCT1 [1] = test system: T1, MtHCT1; assay: HPLC product assay, forward HCT reaction; conditions: 500 µM shikimic acid, 100 mM sodium phosphate pH 7.5, 500 µM DTT; kcat apparent
T1 construct: gene HCT1
Excerpt: HPLC product assay, forward HCT reaction on MtHCT1

MtHCT2 [2] = test system: T2, MtHCT2; assay: HPLC product assay, forward HCT reaction; conditions: 500 µM shikimic acid, 100 mM sodium phosphate pH 7.5, 500 µM DTT; kcat apparent
T2 construct: gene HCT2
Excerpt: HPLC product assay, forward HCT reaction on MtHCT2

MtHCT1 [3] = test system: T1, MtHCT1; assay: HPLC product assay, reverse HCT reaction; conditions: 500 µM CoA, 100 mM sodium phosphate pH 7.5, 500 µM DTT; kcat apparent; substrate tested 20 to 400 µM
Excerpt: HPLC product assay, reverse HCT reaction on MtHCT1

MtHCT2 [4] = test system: T2, MtHCT2; assay: HPLC product assay, reverse HCT reaction; conditions: 500 µM CoA, 100 mM sodium phosphate pH 7.5, 500 µM DTT; kcat apparent; substrate tested 20 to 400 µM
Excerpt: HPLC product assay, reverse HCT reaction on MtHCT2

Km (MtHCT1 [1]) [µM] | Km (MtHCT2 [2]) [µM] | Km (MtHCT1 [3]) [µM] | Km (MtHCT2 [4]) [µM] | Compound
40.6 | 44.3 | – | – | CC(C)(COP(=O)(O)OP(=O)(O)OC[C@H]1O[C@@H](n2cnc3c(N)ncnc32)[C@H](O)[C@@H]1OP(=O)(O)O)[C@@H](O)C(=O)NCCC(=O)NCCSC(=O)/C=C/c1ccc(O)cc1 [4-coumaroyl CoA]
– | – | 148 | 139 | O=C(/C=C/c1ccc(O)c(O)c1)O[C@@H]1CC(C(=O)O)=C[C@@H](O)[C@H]1O [caffeoyl shikimate]
